From ChEMBL document CHEMBL1201861, “Genomics of Drug Sensitity in Cancer screening data, Wellcome Trust Sanger Institute”

Tests used:
[1] = tested on: NCI-H524; assay: cells; assay type: functional, cell-based, Homo sapiens; settings: Homo sapiens, NCI-H524;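 also: growth inhibition of human NCI-H524 cells, read out through a cell viability assay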
Description: SANGER: Inhibition of human NCI-H524 cell growth in a cell viability assay.

[2] = tested on: NCI-H889; assay: cells; assay type: functional, cell-based, Homo sapiens; settings: Homo sapiens, NCI-H889;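 also: cell growth inhibition of the cell line, read out with a viability assay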
Description: SANGER: Inhibition of human NCI-H889 cell growth in a cell viability assay.

[3] = tested on: SU-DHL-1; assay: SANGER: Inhibition of human SU-DHL-1 cell growth in a cell viability assay.; assay type: functional, cell-based; settings: Homo sapiens, SU-DHL-1
[4] = tested on: EW-22; assay: cells; assay type: functional, cell-based, Homo sapiens; settings: Homo sapiens, EW-22;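 also: growth inhibition of the EW-22 cell line, measured with a cell viability readout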
Description: SANGER: Inhibition of human EW-22 cell growth in a cell viability assay.

[5] = tested on: IMR-5; assay: cells; assay type: functional, cell-based, Homo sapiens; settings: Homo sapiens, IMR-5;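 also: growth inhibition of human IMR-5 cells, read out with a cell viability assay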
Description: SANGER: Inhibition of human IMR-5 cell growth in a cell viability assay.

[6] = tested on: TE-15; assay: cells; assay type: functional, cell-based, Homo sapiens; settings: Homo sapiens, TE-15;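 also: cell viability readout of growth inhibition in TE-15 cells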
Description: SANGER: Inhibition of human TE-15 cell growth in a cell viability assay.

[7] = tested on: NCI-H719; assay: cells; assay type: functional, cell-based, Homo sapiens; settings: Homo sapiens, NCI-H719;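 also: growth inhibition of the cultured cell line, read out with a viability assay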
Description: SANGER: Inhibition of human NCI-H719 cell growth in a cell viability assay.

[8] = tested on: TE-441-T; assay: cells; assay type: functional, cell-based, Homo sapiens; settings: Homo sapiens, TE-441-T
Description: SANGER: Inhibition of human TE-441-T cell growth in a cell viability assay.

[9] = tested on: KARPAS-422; assay: cells; assay type: functional, cell-based, Homo sapiens; settings: Homo sapiens, KARPAS-422
Description: SANGER: Inhibition of human KARPAS-422 cell growth in a cell viability assay.

[10] = tested on: U-698-M; assay: cells; assay type: functional, cell-based, Homo sapiens; settings: Homo sapiens, U-698-M
Description: SANGER: Inhibition of human U-698-M cell growth in a cell viability assay.

[11] = tested on: SW1088; assay: cells; assay type: functional, cell-based, Homo sapiens; settings: Homo sapiens, SW1088;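 also: growth inhibition of human SW1088 cells, read out by a cell viability assay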
Description: SANGER: Inhibition of human SW1088 cell growth in a cell viability assay.

[12] = tested on: NCI-H2342; assay: cells; assay type: functional, cell-based, Homo sapiens; settings: Homo sapiens, NCI-H2342;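 also: growth inhibition of the cancer cell line, determined with a cell viability assay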
Description: SANGER: Inhibition of human NCI-H2342 cell growth in a cell viability assay.

[13] = tested on: RVH-421; assay: cells; assay type: functional, cell-based, Homo sapiens; settings: Homo sapiens, RVH-421
Description: SANGER: Inhibition of human RVH-421 cell growth in a cell viability assay.

[14] = tested on: MDA-MB-361; assay: cells; assay type: functional, cell-based, Homo sapiens; settings: Homo sapiens, MDA-MB-361
[15] = tested on: HCC1419; assay: cells; assay type: functional, cell-based, Homo sapiens; settings: Homo sapiens, HCC1419;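 also: growth inhibition of human HCC1419 cells, read out as cell viability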
Description: SANGER: Inhibition of human HCC1419 cell growth in a cell viability assay.

[16] = tested on: 786-0; assay: cells; assay type: functional, cell-based, Homo sapiens; settings: Homo sapiens
Description: SANGER: Inhibition of human 786-0 cell growth in a cell viability assay.

[17] = tested on: RERF-LC-MS; assay: cells; assay type: functional, cell-based, Homo sapiens; settings: Homo sapiens, RERF-LC-MS;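 also: growth inhibition of human RERF-LC-MS cells, read out by a cell viability assay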
Description: SANGER: Inhibition of human RERF-LC-MS cell growth in a cell viability assay.

[18] = tested on: HCC1954; assay: cells; assay type: functional, cell-based, Homo sapiens; settings: Homo sapiens, HCC1954;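 also: growth inhibition of human HCC1954 cells, read out with a cell viability assay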
Description: SANGER: Inhibition of human HCC1954 cell growth in a cell viability assay.

[19] = tested on: NCI-H28; assay: cells; assay type: functional, cell-based, Homo sapiens; settings: Homo sapiens, NCI-H28;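 also: growth inhibition of human NCI-H28 cells, read out as cell viability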
Description: SANGER: Inhibition of human NCI-H28 cell growth in a cell viability assay.

[20] = tested on: RT-112; assay: cells; assay type: functional, cell-based, Homo sapiens; settings: Homo sapiens, RT-112
Description: SANGER: Inhibition of human RT-112 cell growth in a cell viability assay.

[21] = tested on: KYSE-150 cell line; assay: cells; assay type: functional, cell-based, Homo sapiens; settings: Homo sapiens, KYSE-150;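 also: growth inhibition of human KYSE-150 cells, read out with a cell viability assay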
Description: SANGER: Inhibition of human KYSE-150 cell growth in a cell viability assay.

[22] = tested on: CAL-12T; assay: cells; assay type: functional, cell-based, Homo sapiens; settings: Homo sapiens, CAL-12T;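 also: growth inhibition of human CAL-12T cells, read out with a cell viability assay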
Description: SANGER: Inhibition of human CAL-12T cell growth in a cell viability assay.

[23] = tested on: GCT; assay: cells; assay type: functional, cell-based, Homo sapiens; settings: Homo sapiens, GCT;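 also: GCT cell line proliferation inhibition, read out with a cell viability assay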
Description: SANGER: Inhibition of human GCT cell growth in a cell viability assay.

[24] = tested on: OVCAR-8; assay: cells; assay type: functional, cell-based, Homo sapiens; settings: Homo sapiens, OVCAR-8;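 also: growth inhibition of human OVCAR-8 cells, read out by a cell viability assay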
Description: SANGER: Inhibition of human OVCAR-8 cell growth in a cell viability assay.

[25] = tested on: SCC-25; assay: cells; assay type: functional, cell-based, Homo sapiens; settings: Homo sapiens, SCC-25;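 also: growth inhibition of SCC-25 cells, measured with a cell viability assay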
Description: SANGER: Inhibition of human SCC-25 cell growth in a cell viability assay.

[26] = tested on: RPMI-2650; assay: cells; assay type: functional, cell-based, Homo sapiens; settings: Homo sapiens, RPMI-2650
Description: SANGER: Inhibition of human RPMI-2650 cell growth in a cell viability assay.

[27] = tested on: SW1783; assay: cells; assay type: functional, cell-based, Homo sapiens; settings: Homo sapiens, SW1783
Description: SANGER: Inhibition of human SW1783 cell growth in a cell viability assay.

[28] = tested on: SCC-9; assay: cells; assay type: functional, cell-based, Homo sapiens; settings: Homo sapiens, SCC-9;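 also: Read-out is a cell viability assay, with values giving inhibition of cell growth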
Description: SANGER: Inhibition of human SCC-9 cell growth in a cell viability assay.

[29] = tested on: CAL-51; assay: cells; assay type: functional, cell-based, Homo sapiens; settings: Homo sapiens, CAL-51;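 also: human CAL-51 cell line, growth inhibition read out via a cell viability assay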
Description: SANGER: Inhibition of human CAL-51 cell growth in a cell viability assay.

[30] = tested on: H4; assay: cells; assay type: functional, cell-based, Homo sapiens; settings: Homo sapiens, H4
Description: SANGER: Inhibition of human H4 cell growth in a cell viability assay.

[31] = tested on: DMS-273; assay: cells; assay type: functional, cell-based, Homo sapiens; settings: Homo sapiens, DMS-273
Description: SANGER: Inhibition of human DMS-273 cell growth in a cell viability assay.

[32] = tested on: SAOS-2; assay: cells; assay type: functional, cell-based, Homo sapiens; settings: Homo sapiens, SAOS-2;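 also: growth inhibition of human Saos-2 cells determined by a cell viability assay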
Description: SANGER: Inhibition of human Saos-2 cell growth in a cell viability assay.

[33] = tested on: HCC1569; assay: cells; assay type: functional, cell-based, Homo sapiens; settings: Homo sapiens, HCC1569;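 also: growth inhibition of human HCC1569 cells, read out with a cell viability assay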
Description: SANGER: Inhibition of human HCC1569 cell growth in a cell viability assay.

[34] = tested on: MKN-28; assay: cells; assay type: functional, cell-based, Homo sapiens; settings: Homo sapiens, MKN-28;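 also: cell viability assay read-out, IC50 reflects suppression of growth of human MKN-28 cells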
Description: SANGER: Inhibition of human MKN28 cell growth in a cell viability assay.

[35] = tested on: NCI-H661; assay: cells; assay type: functional, cell-based, Homo sapiens; settings: Homo sapiens, NCI-H661;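 also: cell viability assay read-out, IC50 being the concentration that inhibits growth of the cells by half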
Description: SANGER: Inhibition of human NCI-H661 cell growth in a cell viability assay.

[36] = tested on: COLO-741; assay: cells; assay type: functional, cell-based, Homo sapiens; settings: Homo sapiens, COLO-741
Description: SANGER: Inhibition of human COLO-741 cell growth in a cell viability assay.

[37] = tested on: HSC-2; assay: cells; assay type: functional, cell-based, Homo sapiens; settings: Homo sapiens, HSC-2;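 also: growth inhibition of human HSC-2 cells, read out by a cell viability assay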
Description: SANGER: Inhibition of human HSC-2 cell growth in a cell viability assay.

[38] = tested on: OAW-42; assay: cells; assay type: functional, cell-based, Homo sapiens; settings: Homo sapiens, OAW-42;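 also: growth inhibition of OAW-42 cells, read out with a cell viability assay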
Description: SANGER: Inhibition of human OAW-42 cell growth in a cell viability assay.

[39] = tested on: SBC-5; assay: cells; assay type: functional, cell-based, Homo sapiens; settings: Homo sapiens, SBC-5;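 also: cell viability assay read-out, IC50 is the concentration that inhibits growth of the cells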
Description: SANGER: Inhibition of human SBC-5 cell growth in a cell viability assay.

[40] = tested on: SJRH30; assay: cells; assay type: functional, cell-based, Homo sapiens; settings: Homo sapiens, SJRH30;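 also: growth inhibition of human SJRH30 cells, read out with a cell viability assay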
Description: SANGER: Inhibition of human SJRH30 cell growth in a cell viability assay.

[41] = tested on: KYSE-410; assay: cells; assay type: functional, cell-based, Homo sapiens; settings: Homo sapiens, KYSE-410;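 also: growth inhibition of KYSE-410 cells, measured through a cell viability readout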
Description: SANGER: Inhibition of human KYSE-410 cell growth in a cell viability assay.

[42] = tested on: 769-P; assay: cells; assay type: functional, cell-based, Homo sapiens; settings: Homo sapiens, 769-P
Description: SANGER: Inhibition of human 769-P cell growth in a cell viability assay.

[43] = tested on: RMG-I; assay: cells; assay type: functional, cell-based, Homo sapiens; settings: Homo sapiens, RMG-I;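 also: growth inhibition of human RMG-I cells, read out with a cell viability assay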
Description: SANGER: Inhibition of human RMG-I cell growth in a cell viability assay.

[44] = tested on: KNS-62; assay: cells; assay type: functional, cell-based, Homo sapiens; settings: Homo sapiens, KNS-62;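 also: inhibition of cell growth, read out with a cell viability assay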
Description: SANGER: Inhibition of human KNS-62 cell growth in a cell viability assay.

[45] = tested on: A549; assay: cells; assay type: functional, cell-based, Homo sapiens; settings: Homo sapiens, A549;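 also: growth inhibition of A549 cells, read out with a cell viability assay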
Description: SANGER: Inhibition of human A549 cell growth in a cell viability assay.

[46] = tested on: ZR-75-30; assay: cells; assay type: functional, cell-based, Homo sapiens; settings: Homo sapiens, ZR-75-30;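 also: growth inhibition of ZR-75-30 cells, measured with a cell viability readout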
Description: SANGER: Inhibition of human ZR-75-30 cell growth in a cell viability assay.

[47] = tested on: H-EMC-SS; assay: cells; assay type: functional, cell-based, Homo sapiens; settings: Homo sapiens, H-EMC-SS
Description: SANGER: Inhibition of human H-EMC-SS cell growth in a cell viability assay.

[48] = tested on: D-566MG; assay: cells; assay type: functional, cell-based, Homo sapiens; settings: Homo sapiens, D-566MG

Measured: IC50

COc1cc2ncn(-c3cc(OCc4ccccc4S(C)(=O)=O)c(C#N)s3)c2cc1OC [GSK-319347A]
> 5 µM: [1] | [2] | [3] | [4] | [5] | [6] | [7] | [8] | [9] | [10]

C=C(c1ccc(C(=O)O)cc1)c1cc2c(cc1C)C(C)(C)CCC2(C)C [BEXAROTENE]
3.96 µM: [22]
not listed: [4] | [44] | [45] | [46] | [47] | [48]
> 8 µM: all other assays above

Oc1ccc2ccccc2c1SSc1c(O)ccc2ccccc12
12.9 µM: [7]
3.32 µM: [16]
5.64 µM: [22]
17.3 µM: [34]
27.3 µM: [20]
3.55 µM: [29]
7.84 µM: [9]
18 µM: [36]
3.24 µM: [10]
11.5 µM: [8]
not listed: [4] | [44] | [45] | [46] | [47] | [48]
> 32 µM: all other assays above

N#Cc1c(O)c2c(-c3ccc(-c4ccccc4O)cc3)csc2[nH]c1=O
0.86 µM: [14]
0.495 µM: [40]
0.219 µM: [10]
0.344 µM: [9]
not listed: [4] | [44] | [45] | [46] | [47] | [48]
> 1.02 µM: all other assays above

CN(C)C(=N)NC(=N)N [METFORMIN]
14400 µM: [17]
14900 µM: [46]
4560 µM: [35]
4540 µM: [45]
> 20000 µM: [11] | [14] | [15] | [16] | [20] | [44] | [24] | [26] | [27] | [30] | [34] | [47] | [41] | [43]
13600 µM: [31]
12200 µM: [25]
17100 µM: [39]
6920 µM: [42]
12100 µM: [37]
10200 µM: [28]
18100 µM: [38]
10800 µM: [48]
12000 µM: [19]
8620 µM: [12]
